Assay [1] deals with scopolamine induced deficit (dementia/amnesia) in mice. In words: Scopolamine induced amnesia, single trial passive avoidance test. The class given is in vivo. The following applies: test compounds 20 μmol/kg orally, donepezil 10 mg/kg po; for % Learning ([2nd Trial − 1st trial/1st trial] × 100): scopolamine group 33.6, trained control 274.9; for change in vivo at 20 µmol/kg: Mus musculus, read-out: % Improvement in Learning (% Learning in treated gp − % Learning in Scopolamine gp). On the procedure:
Single trial passive avoidance is widely used as experimental test to assess learning memory functions in rodents.
Passive Avoidance Test (in vivo): Study was conducted in adult Swiss male mice of 3-4 months (wt. 20-25 g) which were kept in standard housing condition with 12 h light and dark cycle. Food and water were available ad libitum. […] Passive avoidance test was studied by a computerized shuttle box (Columbus Instruments, Ohio, USA) provided with a software program PACS 30. The shuttle box comprises of two compartments, isolated by an automated door. […] Each mouse was placed in the bright compartment and on transfer into the dark compartment it was given an electric shock (0.5 mA for 5 s) through floor grid. Transfer of mice from bright to dark compartment was recorded as transfer latency time (TLT) in seconds. TLT was recorded in control and treated groups (1st Trial, acquisition) and then after 24 hours (2nd Trial, retention). An increase in the TLT on 2nd Trial (retention) as compared to 1st Trial (acquisition) was taken as the criterion for successful learning and memory (cognitive activity).
Scopolamine induced deficit (Dementia): Scopolamine a muscarinic antagonist, known to produce impairment in cognitive functions (dementia) in human as well as in experimental animals, was used to produce deficit (no significant increase on 2nd trial) in passive avoidance learning. Scopolamine was administered 5 min prior to 1st trial. Reversal of scopolamine induced deficit i.e. significant increase in 2nd trial by test substance indicates potential anti-dementia activity. […].
Drug administration: Scopolamine was administered 5 min prior to 1st trial in test group. Each test compound was administered orally in dose of 20 μmol/kg (1% aq. suspension in gum acacia) 1 hour prior to 2nd trial in scopolamine treated mice (n=5). Scopolamine control group received 1 ml/kg of vehicle (1% aq. suspension in gum acacia) orally. […] Donepezil (10 mg/kg, po, as 1% aqueous suspension in gum acacia) was used as standard drug and given 1 hour prior to 2nd trial in scopolamine treated mice.
Statistical analysis: Mean values and standard error (S.E.) of mean were calculated for TLT and specific activity of AChE in the different regions of brain samples of each group. The significance of difference between the values of AChe activity and TLT between the groups was determined by one-way ANOVA test that followed by Dunnett's test.

Assay [2] addresses T1, AChE (Rattus norvegicus, UniProt P37136).
T1 construct: Aliquots of this supernatant was diluted in the ratio of 1:10 and used as a source of enzyme for the assay; from tissue; host or cells: whole brain of adult male SD rats; 10% homogenate with Triton X-100, 100,000 x g supernatant
T1 sequence (P37136 32-614): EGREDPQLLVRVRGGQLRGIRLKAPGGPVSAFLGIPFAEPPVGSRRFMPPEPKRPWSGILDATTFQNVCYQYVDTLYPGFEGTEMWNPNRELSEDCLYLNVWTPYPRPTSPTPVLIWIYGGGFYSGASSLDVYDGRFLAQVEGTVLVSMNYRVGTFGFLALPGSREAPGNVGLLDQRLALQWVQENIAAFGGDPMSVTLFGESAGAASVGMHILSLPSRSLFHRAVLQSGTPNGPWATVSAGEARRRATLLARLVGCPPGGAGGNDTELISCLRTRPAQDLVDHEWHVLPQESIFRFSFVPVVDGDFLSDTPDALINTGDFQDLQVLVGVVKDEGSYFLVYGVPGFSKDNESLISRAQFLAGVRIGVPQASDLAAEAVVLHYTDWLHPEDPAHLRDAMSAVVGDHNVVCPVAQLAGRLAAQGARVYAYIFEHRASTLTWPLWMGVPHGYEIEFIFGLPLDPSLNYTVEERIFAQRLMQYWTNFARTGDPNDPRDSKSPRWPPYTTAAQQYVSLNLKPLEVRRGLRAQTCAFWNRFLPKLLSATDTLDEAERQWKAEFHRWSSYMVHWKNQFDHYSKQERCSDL
Description: Inhibitive effect on acetylcholinesterase activity (Ellman method, rat brain homogenate supernatant). The class given is biochemical. The note with it: for Cholinesterase Enzyme Activity in presence of active drug: control AChE activity 0.014446; for % Cholinesterase Enzyme Activity in presence of active drug: relative to control AChE activity. On the procedure:
The study was conducted in adult SD male rats (200-250 g) Rats were perfused under mild ether anesthesia through heart with ice cooled normal saline (0.9% NaCl) to reduce blood-borne cholinesterase from brain. After perfusion whole brain was taken out. 10% (w/v) homogenate of brain was prepared first by homogenizing in Ultra-Turrax T25 homogenizer at a speed of 9500 rpm thrice giving intervals for few seconds in between the runs, with sodium phosphate buffer (30 mmol/lit, pH 7.0). Sodium phosphate buffer was taken in a volume half to the final volume required for 10% homogenate. 1% Triton X-100 (1% w/v in 30 mmol/lit. sodium phosphate buffer, pH 7.0) is then added in a volume to make the final volume for 10% homogenate, slowly while stirring the homogenate on ice.
Kinetic profile of the enzyme activity was studied spectrophotometrically at 412 nm at an interval of 15 s. Assay for each sample was run in duplicate and each experiment was performed thrice.
[…] Tacrine (1 μmol) was used as standard AChe inhibitor (standard control). The AChe inhibitory activity was calculated on the basis of % decrease change from control values i.e. AChe acivity without incubation with any standard or test drug.
Background: Ellman's reagent forms a yellow product with free thiols.

Setting [3] is: scopolamine treated mice, 1 hour prior to 2nd trial.

The structures appear in SMILES notation.

With `CCCCCCCNC(=O)Oc1ccc2ncccc2c1` [1b, Heptyl-Carbamic Acid quinolin-6-yl ester], the “2nd TRIAL (retention, after 24 hours) transfer latency time (TLT)” value (from here on “2nd TRIAL … (TLT)”) in assay [1] (setting [3]) was 238 s. Also, the “% Learning ([2nd Trial − 1st trial/1st trial] × 100)” value in assay [1] (scopolamine treated mice) was determined as 140.4%. Also, the “% Improvement in Learning (% Learning in treated gp − % Learning in Scopolamine gp)” value (“% Improvement in Learning” for short) in assay [1] turned out to be 106.8%.
As for `O=C(Nc1ccccc1Cl)Oc1ccc2ncccc2c1` [1c], in assay [1] (setting [3]), the “1st TRIAL (acquisition) transfer latency time (TLT)” value turned out to be 89.6 s and the “2nd TRIAL … (TLT)” value was determined as 230 s. The “% Learning ([2nd Trial − 1st trial/1st trial] × 100)” value in assay [1] (scopolamine treated mice) is given as 156.7%. For the same compound, in assay [1], the “% Improvement in Learning” value stood at 123.09%.
Consider `O=C(Nc1cccc(Br)c1)Oc1ccc2c(c1)CCCN2` [2c, (3-Bromo-phenyl)-carbamic acid 1,2,3,4-tetrahydro-quinolin-6-yl ester], for which the “2nd TRIAL … (TLT)” value in assay [1] (setting [3]) was found to be 195 s. Also, the “% Learning ([2nd Trial − 1st trial/1st trial] × 100)” value in assay [1] (scopolamine treated mice) worked out at 101%. For the same compound, in assay [1], the “% Improvement in Learning” value is given as 67.4%.
In the case of `CCCCCCNC(=O)Oc1ccc2c(c1)CCCN2Cc1ccccc1` [2h, Hexyl-carbamic acid 1-benzyl-1,2,3,4-tetrahydro-quinolin-6-yl ester], the “2nd TRIAL … (TLT)” value in assay [1] (setting [3]) was determined as 205 s. Also, the “% Learning ([2nd Trial − 1st trial/1st trial] × 100)” value in assay [1] (scopolamine treated mice) is on record as 122.8%. Besides, the “% Improvement in Learning” value in assay [1] stood at 89.2%.
Turning to `O=C(Nc1ccccc1Cl)Oc1ccc2c(c1)CCCN2Cc1ccccc1` [2i, (2-Chloro-phenyl)carbamic acid 1-benzyl-1,2,3,4-tetrahydro-quinolin-6 yl ester], the “Cholinesterase Enzyme Activity in presence of active drug” value was 0.01351 μmol/mg of protein/min in assay [2] (drug conc. 0.1 μm); 0.01211 μmol/mg of protein/min in assay [2] (drug conc. 0.3 μm); 0.01071 μmol/mg of protein/min in assay [2] (drug conc. 1 μm); 0.007456 μmol/mg of protein/min in assay [2] (drug conc. 3 μm); 0.001864 μmol/mg of protein/min in assay [2] (drug conc. 10 μm). For the same compound, the “% Cholinesterase Enzyme Activity in presence of active drug” value in assay [2] (drug conc. 0.1 μm) was determined as 93.54%; in assay [2] (drug conc. 0.3 μm), 83.87%; in assay [2] (drug conc. 1 μm), 74.19%; in assay [2] (drug conc. 10 μm), 12.90%; in assay [2], 51.61%. Further, the “2nd TRIAL … (TLT)” value in assay [1] (setting [3]) is 186.4 s. For the same compound, the “% Learning ([2nd Trial − 1st trial/1st trial] × 100)” value in assay [1] (scopolamine treated mice) is 123.2%. Also, the “% Improvement in Learning” value in assay [1] is recorded as 89.6%.
Turning to `CN1CCCc2cc(OC(=O)Nc3ccc(Cl)c(C(F)(F)F)c3)ccc21` [2q, (4-Chloro-3-trifluoromethyl-phenyl)-carbamic acid 1-methyl-1,2,3,4-tetrahydro-quinolin-6-yl ester], in assay [1] (scopolamine treated mice), the change in vivo at 20 µmol/kg turned out to be 76% and the “% Learning ([2nd Trial − 1st trial/1st trial] × 100)” value was 109%. Further, the “2nd TRIAL … (TLT)” value in assay [1] (setting [3]) worked out at 218 s.
In the case of `CN1CCCc2cc(OC(=O)Nc3ccc(Br)cc3)ccc21` [2r, (4-bromophenyl)carbamic acid 1-methyl-1,2,3,4-tetrahydroquinolin-6-yl ester], in assay [1] (scopolamine treated mice), the change in vivo at 20 µmol/kg came out at 62% and the “% Learning ([2nd Trial − 1st trial/1st trial] × 100)” value is 95.6%. Moreover, the “2nd TRIAL … (TLT)” value in assay [1] (setting [3]) came out at 242 s.
Take `COc1cc2c(cc1OC)C(=O)C(CC1CCN(Cc3ccccc3)CC1)C2` (centres unmarked) [DONEPEZIL, donepezil, reference compound]: in assay [1] (setting [3]), the “2nd TRIAL … (TLT)” value was determined as 245 s. Further, the “% Learning ([2nd Trial − 1st trial/1st trial] × 100)” value in assay [1] (scopolamine treated mice) amounted to 168%. The “% Improvement in Learning” value in assay [1] is listed as 134.4%.

Values taken from patent US7655801B2, “Substituted carbamic acid quinolin-6-yl esters useful as acetylcholinesterase inhibitors” (priority 2004, dated 2010).
